Data reported in PubChem BioAssay AID1918949 (Molecular Pharmacology Branch, DTP, NCI, 2023).
pIC50: −log10 of the molar value.

Test system: K24384-001-R-PDC complex spheroid viability
Experiment: Anticancer human tumor K24384-001-R-PDC patient-derived pancreatic adenocarcinoma cell line growth inhibition
Conditions: for pIC50: curve of first compound; for viability, T/C: stronger effect = lower value
In short: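 Drug combinations with the LSD1 inhibitor iadademstat tested on tumor cells co-cultured as spheroids with endothelial cells and mesenchymal stem cells. Concentrations descended in half-log increments from clinical Cmax or 10 microM.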

[1] = second compound 0.1 µM, first compound 0.000316 µM
[2] = second compound 0.1 µM, first compound 0.001 µM
[3] = second compound 0.1 µM, first compound 0.00316 µM
[4] = second compound 0.1 µM, first compound 0.01 µM
[5] = second compound 0.1 µM, first compound 0.0316 µM
[6] = second compound 0.1 µM, first compound 0.1 µM
[7] = second compound 0.316 µM, first compound 0.000316 µM
[8] = second compound 0.316 µM, first compound 0.001 µM
[9] = second compound 0.316 µM, first compound 0.00316 µM
[10] = second compound 0.316 µM, first compound 0.01 µM
[11] = second compound 0.316 µM, first compound 0.0316 µM
[12] = second compound 0.316 µM, first compound 0.1 µM
[13] = second compound 1 µM, first compound 0.000316 µM
[14] = second compound 1 µM, first compound 0.001 µM
[15] = second compound 1 µM, first compound 0.00316 µM
[16] = second compound 1 µM, first compound 0.01 µM
[17] = second compound 1 µM, first compound 0.0316 µM
[18] = second compound 1 µM, first compound 0.1 µM
[19] = second compound 3.16 µM, first compound 0.000316 µM
[20] = second compound 3.16 µM, first compound 0.001 µM
[21] = second compound 3.16 µM, first compound 0.00316 µM
[22] = second compound 3.16 µM, first compound 0.01 µM
[23] = second compound 3.16 µM, first compound 0.0316 µM
[24] = second compound 3.16 µM, first compound 0.1 µM
[25] = second compound 10 µM, first compound 0.000316 µM
[26] = second compound 10 µM, first compound 0.001 µM
[27] = second compound 10 µM, first compound 0.00316 µM
[28] = second compound 10 µM, first compound 0.01 µM
[29] = second compound 10 µM, first compound 0.0316 µM
[30] = second compound 10 µM, first compound 0.1 µM
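Note: spheroids exposed to agents for seven days before luminescence viability reading.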
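Throughout, for viability, T/C: 100% = DMSO vehicle control viability.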

CC(C)CC(NC(=O)C(Cc1ccccc1)NC(=O)c1cnccn1)B(O)O (stereo not given) + NC1CC1c1ccc(-c2cccc(O)c2)cc1
pIC50 (second compound 0.1 µM): 9.29
pIC50 (second compound 0.316 µM): 9.26
pIC50 (second compound 1 µM): 9.27
pIC50 (second compound 3.16 µM): 9.29
pIC50 (second compound 10 µM): 9.42
viability, T/C [1]: 85.9%
viability, T/C [2]: 2.19%
viability, T/C [3]: 0.45%
viability, T/C [4]: 0.17%
viability, T/C [5]: 0.24%
viability, T/C [6]: 0.27%
viability, T/C [7]: 95.9%
viability, T/C [8]: 1.68%
viability, T/C [9]: 2.35%
viability, T/C [10]: 0.3%
viability, T/C [11]: 0.24%
viability, T/C [12]: 1.4%
viability, T/C [13]: 92%
viability, T/C [14]: 1.87%
viability, T/C [15]: 0.24%
viability, T/C [16]: 0.3%
viability, T/C [17]: 0.15%
viability, T/C [18]: 0.92%
viability, T/C [19]: 85.5%
viability, T/C [20]: 1.44%
viability, T/C [21]: 0.32%
viability, T/C [22]: 0.19%
viability, T/C [23]: 0.18%
viability, T/C [24]: 0.22%
viability, T/C [25]: 59.5%
viability, T/C [26]: 1.6%
viability, T/C [27]: 3.23%
viability, T/C [28]: 1.83%
viability, T/C [29]: 1.14%
viability, T/C [30]: 2.44%

CC(C)CC(NC(=O)CNC(=O)c1cc(Cl)ccc1Cl)B1OC(=O)CC(CC(=O)O)(C(=O)O)O1 (stereo not given) + NC1CC1c1ccc(-c2cccc(O)c2)cc1
pIC50 (second compound 0.1 µM): 8.05
pIC50 (second compound 0.316 µM): 8.04
pIC50 (second compound 1 µM): 8.07
pIC50 (second compound 3.16 µM): 8.06
pIC50 (second compound 10 µM): 8.15
viability, T/C [1]: 121%
viability, T/C [2]: 123%
viability, T/C [3]: 97.3%
viability, T/C [4]: 46.6%
viability, T/C [5]: 4.82%
viability, T/C [6]: 0.93%
viability, T/C [7]: 114%
viability, T/C [8]: 113%
viability, T/C [9]: 95.4%
viability, T/C [10]: 47.8%
viability, T/C [11]: 4.68%
viability, T/C [12]: 0.79%
viability, T/C [13]: 112%
viability, T/C [14]: 129%
viability, T/C [15]: 117%
viability, T/C [16]: 38.8%
viability, T/C [17]: 4.54%
viability, T/C [18]: 0.98%
viability, T/C [19]: 117%
viability, T/C [20]: 109%
viability, T/C [21]: 101%
viability, T/C [22]: 42.9%
viability, T/C [23]: 4.31%
viability, T/C [24]: 0.85%
viability, T/C [25]: 111%
viability, T/C [26]: 136%
viability, T/C [27]: 103%
viability, T/C [28]: 28.1%
viability, T/C [29]: 2.96%
viability, T/C [30]: 0.48%

COc1cc(Nc2ncc3c(n2)-c2ccc(Cl)cc2C(c2c(F)cccc2OC)=NC3)ccc1C(=O)O + NC1CC1c1ccc(-c2cccc(O)c2)cc1
pIC50 (second compound 0.1 µM): < 6.00
pIC50 (second compound 0.316 µM): < 6.00
pIC50 (second compound 1 µM): 7.32
pIC50 (second compound 3.16 µM): 7.47
pIC50 (second compound 10 µM): 7.60
viability, T/C [3]: 74.2%
viability, T/C [4]: 72.7%
viability, T/C [5]: 62.4%
viability, T/C [6]: 57.3%
viability, T/C (second compound 0.1 µM, first compound 0.316 µM): 55.8%
viability, T/C (second compound 0.1 µM, first compound 1 µM): 60.3%
viability, T/C [9]: 68%
viability, T/C [10]: 63.1%
viability, T/C [11]: 51.9%
viability, T/C [12]: 47.8%
viability, T/C (second compound 0.316 µM, first compound 0.316 µM): 45.5%
viability, T/C (second compound 0.316 µM, first compound 1 µM): 58.9%
viability, T/C [15]: 61.1%
viability, T/C [16]: 62.5%
viability, T/C [17]: 52.8%
viability, T/C [18]: 43.7%
viability, T/C (second compound 1 µM, first compound 0.316 µM): 43.2%
viability, T/C (second compound 1 µM, first compound 1 µM): 48.9%
viability, T/C [21]: 56.6%
viability, T/C [22]: 64%
viability, T/C [23]: 50.4%
viability, T/C [24]: 39.6%
viability, T/C (second compound 3.16 µM, first compound 0.316 µM): 42.5%
viability, T/C (second compound 3.16 µM, first compound 1 µM): 49.8%
viability, T/C [27]: 65.4%
viability, T/C [28]: 62.4%
viability, T/C [29]: 45.7%
viability, T/C [30]: 44.6%
viability, T/C (second compound 10 µM, first compound 0.316 µM): 42.4%
viability, T/C (second compound 10 µM, first compound 1 µM): 54.7%
